# Test results taken from paper PMC4713029 (Nuclear medicine and biology, 2011).
# Columns and labels:
# [1] = test system: s.c. pheochromocytoma tumors (MPC cells); assay: [^18F]-DA and [^18F]-DOPA PET in mice with subcutaneous pheochromocytoma; conditions: for SUVmax (mean±S.E.M.), s.c. tumors <5 mm / SUVmax (mean±S.E.M.), s.c. tumors >5 mm / SUVmax in tumor sample s.c. 1 / SUVmax in tumor sample s.c. 2 / SUVmax in tumor sample s.c. 3 / TLR for s.c. tumors (range over tumor size) / TLR, s.c. tumors <5 mm / TLR, s.c. tumors >5 mm / TBR, s.c. tumors <5 mm / TBR, s.c. tumors >5 mm: 60–70 min after administration; for TBR, s.c. tumors <5 mm / TBR, s.c. tumors >5 mm: muscle as background; for number of subcutaneous tumors localized by PET: necropsy 4 in 4 mice
# [2] = test system: organ metastatic pheochromocytoma lesions (MPC cells); assay: [^18F]-DA and [^18F]-DOPA PET in mice with organ metastatic pheochromocytoma; conditions: for TBR (tumor-to-background ratio), liver tumors <3 mm / TBR, adrenal tumors >3 mm / TBR, liver tumors >3 mm / TBR, ovary tumors >3 mm: muscle as background; for SUVmax in tumor sample Adrenal 1: sample also immunostained; for SUVmax in liver lesions, the first week / SUVmax in liver lesions, the second week: liver lesions imaged once a week for two weeks; for optimal time for lesion detection after administration: liver lesions vs liver background, dynamic PET up to 70 min; for number of ovary tumors localized by PET: necropsy 4 in 4 mice; for number of lung tumors localized by PET: necropsy >20 in 2 mice
# [3] = test system: pheochromocytoma animal model with extensive liver and other organ lesions; format: in vivo; conditions: preliminary experiments
# [4] = cited from earlier work
# [5] = Fig. 3G, 60–70 min after injection
smiles,measurement,setting,value
"NCCc1cc(O)c(O)cc1[18F] [[^18F]-DA, [^18F]-6-fluorodopamine]","SUVmax (mean±S.E.M.), s.c. tumors <5 mm",[1],0.31±0.02
same,"SUVmax (mean±S.E.M.), s.c. tumors >5 mm",[1],0.35±0.12
same,SUVmax in tumor sample s.c. 1,[1],— (A dash sign “—” presents SUVmax values less than 0.3 for both [^18F]-DA and [^18F]-DOPA)
same,SUVmax in tumor sample s.c. 2,[1],— (A dash sign “—” presents SUVmax values less than 0.3 for both [^18F]-DA and [^18F]-DOPA)
same,SUVmax in tumor sample s.c. 3,[1],— (A dash sign “—” presents SUVmax values less than 0.3 for both [^18F]-DA and [^18F]-DOPA)
same,TLR for s.c. tumors (range over tumor size),[1],0.22-0.27
same,"TLR, s.c. tumors <5 mm",[1],0.22
same,"TLR, s.c. tumors >5 mm",[1],0.27
same,"TBR, s.c. tumors <5 mm",[1],1.72
same,"TBR, s.c. tumors >5 mm",[1],1.94
same,"SUVmax in large s.c. tumor, representative animal",[1]; [5],0.35
same,"SUVmax in muscle (nontarget tissue), representative animal",[1]; [5],0.31
same,number of subcutaneous tumors localized by PET,[1]; four mice,0
same,"SUVmax (mean±S.E.M.), adrenal tumors >3 mm",[2]; 60–70 min after administration,2.18±0.39
same,"SUVmax (mean±S.E.M.), kidney",[2]; 60–70 min after administration,2.41±0.45
same,"SUVmax (mean±S.E.M.), liver",[2]; 60–70 min after administration,0.88±0.11
same,"SUVmax (mean±S.E.M.), liver tumors <3 mm",[2]; 60–70 min after administration,1.61±0.17
same,"SUVmax (mean±S.E.M.), liver tumors >3 mm",[2]; 60–70 min after administration,2.49±0.08
same,"SUVmax (mean±S.E.M.), muscle (background)",[2]; 60–70 min after administration,0.31±0.02
same,"SUVmax (mean±S.E.M.), ovary tumors >3 mm",[2]; 60–70 min after administration,1.99±0.27
same,SUVmax in tumor sample Adrenal 2,[2]; 60–70 min after administration,1.98
same,SUVmax in tumor sample Bone,[2]; 60–70 min after administration,— (A dash sign “—” presents SUVmax values less than 0.3 for both [^18F]-DA and [^18F]-DOPA)
same,SUVmax in tumor sample Liver 1,[2]; 60–70 min after administration,2.46
same,SUVmax in tumor sample Liver 2,[2]; 60–70 min after administration,1.89
same,SUVmax in tumor sample Liver 3,[2]; 60–70 min after administration,— (A dash sign “—” presents SUVmax values less than 0.3 for both [^18F]-DA and [^18F]-DOPA)
same,SUVmax in tumor sample Lung,[2]; 60–70 min after administration,— (A dash sign “—” presents SUVmax values less than 0.3 for both [^18F]-DA and [^18F]-DOPA)
same,SUVmax in tumor sample Ovary,[2]; 60–70 min after administration,1.92
same,"TLR (tumor-to-liver ratio), liver tumors <3 mm",[2]; 60–70 min after administration,1.83
same,TLR for liver lesions (range depending on tumor size),[2]; 60–70 min after administration,1.83–2.83
same,"TLR, adrenal tumors >3 mm",[2]; 60–70 min after administration,2.47
same,"TLR, liver tumors >3 mm",[2]; 60–70 min after administration,2.83
same,"TLR, ovary tumors >3 mm",[2]; 60–70 min after administration,2.26
same,"TBR (tumor-to-background ratio), liver tumors <3 mm",[2]; 60–70 min after administration,5.19
same,"TBR, adrenal tumors >3 mm",[2]; 60–70 min after administration,7.03
same,"TBR, liver tumors >3 mm",[2]; 60–70 min after administration,8.03
same,"TBR, ovary tumors >3 mm",[2]; 60–70 min after administration,6.41
same,SUVmax in tumor sample Adrenal 1,[2]; 60–70 min after administration,2.15
same,"SUVmax time–activity course, liver lesions smaller than 3 mm","[2]; dynamic PET 10–70 min, Fig. 1",remained relatively stable
same,"SUVmax time–activity course, liver tumors larger than 3 mm","[2]; dynamic PET 10–70 min, Fig. 1",decrease in SUVmax over time
same,"SUVmax in liver lesions, the first week",[2],1.85±0.199
same,"SUVmax in liver lesions, the second week",[2],1.16±0.07
same,optimal time for lesion detection after administration,[2],60 to 70 min
same,number of mice with adrenal tumors localized by PET,"[2]; week 5, nine mice",4 mice
same,number of mice with liver tumors localized by PET,"[2]; week 5, nine mice",8 mice
same,number of mice with ovary tumors localized by PET,"[2]; week 5, nine mice",4 in 4 mice
same,number of ovary tumors localized by PET,"[2]; week 5, nine mice",4 in 4 mice
same,number of lung tumors localized by PET,"[2]; week 5, nine mice",0
"N[C@@H](Cc1cc(O)c(O)cc1[18F])C(=O)O [[^18F]-DOPA, [^18F]-L-6-fluoro-3,4-dihydroxyphenylalanine]","SUVmax (mean±S.E.M.), s.c. tumors <5 mm",[1],2.88±0.88
same,"SUVmax (mean±S.E.M.), s.c. tumors >5 mm",[1],2.0±0.06
same,SUVmax in tumor sample s.c. 1,[1],1.88
same,SUVmax in tumor sample s.c. 2,[1],2.25
same,SUVmax in tumor sample s.c. 3,[1],2.09
same,TLR for s.c. tumors (range over tumor size),[1],1.56-2.24
same,"TLR, s.c. tumors <5 mm",[1],2.24
same,"TLR, s.c. tumors >5 mm",[1],1.56
same,"TBR, s.c. tumors <5 mm",[1],7.2
same,"TBR, s.c. tumors >5 mm",[1],5.0
same,"SUVmax in large s.c. tumor, representative animal",[1]; [5],2
same,number of mice with subcutaneous tumors localized by PET,[1]; four mice,4 in 4 mice
same,number of subcutaneous tumors localized by PET,[1]; four mice,4 in 4 mice
same,"SUVmax (mean±S.E.M.), adrenal tumors >3 mm",[2]; 60–70 min after administration,6.61±0.64
same,"SUVmax (mean±S.E.M.), kidney",[2]; 60–70 min after administration,1.73±0.34
same,"SUVmax (mean±S.E.M.), liver",[2]; 60–70 min after administration,1.33±0.14
same,"SUVmax (mean±S.E.M.), liver tumors <3 mm",[2]; 60–70 min after administration,3.01±0.27
same,"SUVmax (mean±S.E.M.), liver tumors >3 mm",[2]; 60–70 min after administration,3.61±0.19
same,"SUVmax (mean±S.E.M.), muscle (background)",[2]; 60–70 min after administration,0.29±0.02
same,"SUVmax (mean±S.E.M.), ovary tumors >3 mm",[2]; 60–70 min after administration,2.59±0.32
same,SUVmax in tumor sample Adrenal 2,[2]; 60–70 min after administration,5.79
same,SUVmax in tumor sample Bone,[2]; 60–70 min after administration,1.42
same,SUVmax in tumor sample Liver 1,[2]; 60–70 min after administration,3.31
same,SUVmax in tumor sample Liver 2,[2]; 60–70 min after administration,2.79
same,SUVmax in tumor sample Liver 3,[2]; 60–70 min after administration,3.24
same,SUVmax in tumor sample Lung,[2]; 60–70 min after administration,1.15
same,SUVmax in tumor sample Ovary,[2]; 60–70 min after administration,3.05
same,"TLR (tumor-to-liver ratio), liver tumors <3 mm",[2]; 60–70 min after administration,2.26
same,TLR for liver lesions (range depending on tumor size),[2]; 60–70 min after administration,2.26–2.71
same,"TLR, liver tumors >3 mm",[2]; 60–70 min after administration,2.71
same,"TBR (tumor-to-background ratio), liver tumors <3 mm",[2]; 60–70 min after administration,10.38
same,"TBR, adrenal tumors >3 mm",[2]; 60–70 min after administration,22.79
same,"TBR, liver tumors >3 mm",[2]; 60–70 min after administration,12.45
same,"TBR, ovary tumors >3 mm",[2]; 60–70 min after administration,8.93
same,SUVmax in tumor sample Adrenal 1,[2]; 60–70 min after administration,6.46
same,"SUVmax time–activity course, liver lesions regardless of tumor size","[2]; dynamic PET 10–70 min, Fig. 1",remained stable over time
same,"SUVmax in liver lesions, the first week",[2],3.023±0.22
same,"SUVmax in liver lesions, the second week",[2],2.88±0.12
same,optimal time for lesion detection after administration,[2],60 to 70 min
same,number of mice with adrenal tumors localized by PET,"[2]; week 5, nine mice",5 mice
same,number of mice with liver tumors localized by PET,"[2]; week 5, nine mice",9 mice
same,number of mice with lung tumors localized by PET,"[2]; week 5, nine mice",1 in 1 mouse
same,number of mice with ovary tumors localized by PET,"[2]; week 5, nine mice",4 in 4 mice
same,number of ovary tumors localized by PET,"[2]; week 5, nine mice",4 in 4 mice
same,number of adrenal tumors localized by PET,"[2]; week 5, nine mice, necropsy 18 in 9 mice",9
same,number of lung tumors localized by PET,"[2]; week 5, nine mice",1 in 1 mouse
CNCCCN1c2ccccc2CCc2ccccc21 [desipramine],side effects on administration in tumor-bearing animals,[3],side effects were in most cases fatal
NCCc1ccc(O)c(O)c1 [dopamine],half-life in circulation,[4],about 1 minute
COC(=O)[C@H]1[C@H]2C[C@@H]3c4[nH]c5cc(OC)ccc5c4CCN3C[C@H]2C[C@@H](OC(=O)c2cc(OC)c(OC)c(OC)c2)[C@@H]1OC [reserpine],side effects on administration in tumor-bearing animals,[3],side effects were in most cases fatal
COc1cc2c(cc1OC)C1CC(=O)C(CC(C)C)CN1CC2 (stereo not shown) [tetrabenazine],side effects on administration in tumor-bearing animals,[3],side effects were in most cases fatal
